Patent US20140128333A1, “Compounds, Compositions, and Methods for Decreasing Intestinal Glucose Uptake and Inducing Incretin Release” (MAQUI NEW LIFE S.A., priority 2012, published 2014)
“Also recorded” adds a separate entry of the source.

Assays:
[1] = molecular target: T1, SGLT-1 (Mus musculus, UniProt Q8C3K6); assay: Ussing chamber: sodium-coupled D-glucose transport in mouse jejunum (short circuit current); settings: 50 μM delphinidin on mucosal side
T1 construct: Two sections of jejunum per animal were mounted in Ussing Chambers; from tissue; host or cells: jejunum of C57Bl/6J mice
T1 sequence (Q8C3K6 1-665): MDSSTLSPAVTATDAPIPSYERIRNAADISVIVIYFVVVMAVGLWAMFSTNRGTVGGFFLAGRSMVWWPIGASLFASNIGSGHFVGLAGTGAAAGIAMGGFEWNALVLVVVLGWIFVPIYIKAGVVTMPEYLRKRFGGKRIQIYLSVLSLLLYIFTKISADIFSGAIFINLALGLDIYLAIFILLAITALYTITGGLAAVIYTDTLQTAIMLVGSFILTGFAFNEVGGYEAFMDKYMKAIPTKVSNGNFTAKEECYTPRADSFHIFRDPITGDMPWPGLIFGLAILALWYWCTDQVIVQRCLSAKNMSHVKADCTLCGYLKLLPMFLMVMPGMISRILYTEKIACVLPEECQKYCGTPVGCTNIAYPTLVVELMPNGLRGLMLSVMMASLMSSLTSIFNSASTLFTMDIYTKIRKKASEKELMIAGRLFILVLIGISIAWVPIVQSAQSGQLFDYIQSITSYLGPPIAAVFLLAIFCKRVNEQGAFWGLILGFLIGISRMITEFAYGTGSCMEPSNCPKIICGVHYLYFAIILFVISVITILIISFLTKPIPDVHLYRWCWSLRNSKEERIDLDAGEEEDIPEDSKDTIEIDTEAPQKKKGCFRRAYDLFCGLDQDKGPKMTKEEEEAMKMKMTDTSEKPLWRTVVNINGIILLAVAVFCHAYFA
Text: C57B1/6J mice were obtained from The Jackson Laboratory (Bar Harbor, Me., USA). The mice were maintained at the Specific Pathogen Free mouse facility of the Centro de Estudios Científicos (CECS), Valdivia, Chile and prior to the experiments they had free access to water and food. Animals were killed by cervical dislocation according to local Institutional Animal Care and Use Committee (IACUC) regulations. The jejunum was isolated, open longitudinally along the mesenteric border and rinsed with phosphate buffered saline (PBS).
Two sections of jejunum per animal were mounted in Ussing Chambers and maintained in Ussing buffer (120 Mm NaCl, 25 mM NaHCO3, KH2PO4 3.3 mM, 0.8 mM K2HPO4, 1.2 mM MgCl2 and 1.2 mM CaCl2) supplemented with 10 mM D-glucose in the serosal side. […] The effect of delphinidin on sodium-coupled transport of glucose was determined by application of this molecule at a concentration of 50 μM in the mucosal side of the preparation. The transepithelial electrical potential difference (VM), defined as the potential side compared to serous mucus preparation was recorded continuously under current clamp configuration using a VCC MC2 amplifier (Physiological Instruments). The values of short circuit current (Isc) were calculated from experimental data using Ohm's law. The results are expressed as the intensity of the Isc (μA/cm^2). […]

[2] = molecular target: T2, GPR40 receptor (Homo sapiens, UniProt O14842); assay: Measurement of calcium influx in Fura-2/AM-loaded HT-29 cells; type: cell-based; settings: 100 μM
T2 construct: To assess and ensure the participation of GPR40 on calcium mobilization induced by delphinidin and cyanidin, Fura-2/AM-loaded HT-29 cells; endogenous in cells; host or cells: HT-29 cells
T2 sequence (O14842 whole entry): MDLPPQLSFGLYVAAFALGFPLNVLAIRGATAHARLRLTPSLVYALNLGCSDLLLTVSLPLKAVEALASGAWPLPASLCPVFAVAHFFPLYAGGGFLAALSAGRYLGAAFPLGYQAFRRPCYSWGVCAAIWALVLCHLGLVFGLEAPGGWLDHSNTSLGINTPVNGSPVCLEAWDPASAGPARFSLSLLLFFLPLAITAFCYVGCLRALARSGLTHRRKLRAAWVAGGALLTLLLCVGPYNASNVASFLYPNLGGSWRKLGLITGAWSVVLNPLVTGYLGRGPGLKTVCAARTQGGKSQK
Method: HT-29 cells were suspended in HBSS at a concentration of 20×10^6 cells/ml and incubated with 1 μM Fura-2/AM (Molecular Probes) for 30 min at 37° C. The cells were then washed twice, divided into 2×10^6 cells/ml aliquots and maintained at 4° C. in the dark until use. Cells were then pelleted by centrifugation at 1200 rpm for 6 min and re-suspended in 2 ml HEPES buffer [20 mM HEPES, pH 7.2; 140 mM NaCl; 10 mM glucose; 1 mM KCl; 1 mM Ca^2+ chloride (CaCl2); and 1 mM MgCl2].
The influx of Ca^2+ was recorded as the 340:380 excitation ratio at 509 nm emission in a LS55 thermoregulated spectrofluorimeter (Perkin-Elmer, Mass., USA).

[3] = tested on: GLP-1 mRNA expression; assay: GLP-1 mRNA expression in NCI-H716 cells by qRT-PCR; type: cell-based; settings: delphinidin 10, 50 or 100 μM tested, increase at 50 and 100 μM, 24 h
Method: Total RNA was isolated from […] cells using the RNeasy Plus Mini Kit according to the manufacturer's instructions. Approximately 1 μg of total RNA, 0.5 μg of oligo (dT)18 primer, 10 mM dNTPs and 200 U of reverse transcriptase were used for each cDNA synthesis reaction. PCR amplifications were performed using the Brilliant II SYBR Green QPCR Master Mix (Stratagene) according to the manufacturer's instructions. All reactions were carried out using an Mx300p thermal cycler (Stratagene, Calif., USA). GLP-1 specific primers were used.

[4] = tested on: GLP-1 production; assay: GLP-1 production in NCI-H716 cells by flow cytometry; type: cell-based; settings: 50 μM delphinidin, 48 hrs, Brefeldin A
Method: After two washes in PBS, the cells were stained with mouse anti-GLP-1 antibody for 1 hr at 4° C. The cells were washed twice with PBS, incubated for 1 hr at 4° C. with anti-mouse Alexa 488 (1:200 dilution) and finally washed twice with PBS. The cells were assessed by flow cytometry on a FACSCanto II (Becton Dickinson).

Compound: Oc1cc(O)c2cc(O)c(-c3cc(O)c(O)c(O)c3)[o+]c2c1 [Delphinidin, 2-(3,4,5-trihydroxyphenyl)chromenylium-3,5,7-triol]
- decrease of sodium current (Isc) induced by 10 mM D-glucose / inhibition of glucose transport by jejunal mucosa ([1]; n=4): about 40%
- decrease of sodium current (Isc) induced by 10 mM D-glucose / inhibition of glucose transport by jejunal mucosa ([1]; n=4, listed as delphinidin): approximately 60%
- calcium fluxes (340/380 ratio) in HT-29 cells [2]: induces calcium fluxes
- expression of GLP-1 mRNA with respect to control [3]: induces; also recorded: increased
- amount of GLP-1 compared to control cells [4]: induced an increase
